Measured values reported in patent US10167292B2, “Benzodiazepines as bromodomain inhibitors” (Catalyst Therapeutics Pty Ltd, priority 2015, dated 2019).

How the values were obtained:
BRD-3 (Domain 1) = BRD-3 (Domain 1) (Homo sapiens (Human), UniProt Q15059); test: AlphaScreen BRD binding assay, BRD-3 (Domain 1); conditions: acetyl-histone H4 peptide 2.5 nM, protein 80 nM
Protocol: (§1) Biological Characterization Assay Conditions Binding Assay
BRD binding and inhibition was assessed by measuring the interaction of biotinylated acetyl-histone H4 peptide (Anaspec #64989) with the BRD target protein utilising AlphaScreen® technology (Perkin Elmer). In a white 384-well low volume plate (Greiner #784076), 100 nL of compound series in DMSO (0.5% final concentration) was added to the BRD target protein (80 nM final). After 30 min incubation at RT, H4 peptide was added to a final concentration of 2.5 nM. AlphaScreen streptavidin donor beads and AlphaScreen nickel chelate acceptor beads were added to a final concentration of 10 ug/mL each and allowed to incubate in a darkened environment for 1 h at RT. Plates were read on an EnVision plate reader (Perkin Elmer) and IC50's calculated using a four parameter non-linear curve fit.
These conditions are identical for all BRDs screened except BRD2D2 which uses 160 nM protein and 1.25 nM peptide.

BRD-4 (Domain 1) = BRD-4 (Domain 1) (Homo sapiens (Human), UniProt O60885); test: AlphaScreen BRD binding assay, BRD-4 (Domain 1); conditions: acetyl-histone H4 peptide 2.5 nM, protein 80 nM
Protocol: as §1
(§2) AlphaScreen streptavidin donor beads and AlphaScreen nickel chelate acceptor beads were added to a final concentration of 10 ug/mL each and allowed to incubate in a darkened environment for 1 h at RT. Plates were read on an EnVision plate reader (Perkin Elmer) and IC50's calculated using a four parameter non-linear curve fit.

BRD-4 (Domain 2) = BRD-4 (Domain 2) (Homo sapiens (Human), UniProt O60885); test: AlphaScreen BRD binding assay, BRD-4 (Domain 2); conditions: acetyl-histone H4 peptide 2.5 nM, protein 80 nM
Protocol: as §1, §2

HL-60 = test: Cell proliferation assay (CellTiter-Glo), HL-60; type: cell-based; conditions: Homo sapiens, HL-60 cells, 72 h
Protocol: (§3) The cells were prepared in the required fashion (suspension or adherent). The cells were initially washed once in the culture medium that they would be finally treated in. Following this 10 ml of the test medium was added and the cells. The mixture was pipetted gently several times.
(§4) The cells were counted and then the volume was spun down to the volume necessary for the total number of cells needed. The cells were then resuspended in the appropriate test medium to the desired concentration. In general, the final concentration of non-adherent cells was 2×10^5 cells/ml i.e. 10,000 cells per 50 μ1. Once the desired concentration had been reached, 50 µl of the cells were added to the appropriate wells and the cells were incubated for 72 h at 37° C.
(§5) CellTiter-Glo Luminescent Assay (Kit G7571—See Promega's Instruction Manual for Additional Details):
(§6) Both reagents were pre-warmed to RT. The buffer was thawed in a 37° C. water bath until it had just completely thawed. It was then left on a bench at RT for at least 30 min.
(§7) Following this the substrate and buffer were mixed together. To ensure that the substrate was dissolved, the mixture was inverted several times.
(§8) The cell culture plates were removed from the incubator and were then allowed to adjust to RT for at least 30 min.
(§9) Afterwards 40 μL of the reagent was added to 100 μL of the culture medium. […] The plates were then incubated for 10 min on the bench. The luminescence could then be read using a luminescence plate reader.

BRD-2 (Domain 1) = BRD-2 (Domain 1) (Homo sapiens (Human), UniProt P25440); test: AlphaScreen BRD binding assay, BRD-2 (Domain 1); conditions: acetyl-histone H4 peptide 2.5 nM, protein 80 nM
Protocol: as §1, §2

BRD-2 (Domain 2) = BRD-2 (Domain 2) (Homo sapiens (Human), UniProt P25440); test: AlphaScreen BRD binding assay, BRD-2 (Domain 2); conditions: 160 nM protein and 1.25 nM peptide
Protocol: as §1, §2

MV4; 11 = test: Cell proliferation assay (CellTiter-Glo), MV4;11; type: cell-based; conditions: Homo sapiens, MV4;11 cells, 72 h
Protocol: as §3, §4, §5, §6, §7, §8, §9

Chain of BRD-3 (Domain 1) (Q15059 34-140): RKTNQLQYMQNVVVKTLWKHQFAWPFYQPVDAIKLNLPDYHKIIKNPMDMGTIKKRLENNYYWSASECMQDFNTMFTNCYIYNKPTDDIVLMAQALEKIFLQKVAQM
Chain of BRD-2 (Domain 1) (P25440 74-180): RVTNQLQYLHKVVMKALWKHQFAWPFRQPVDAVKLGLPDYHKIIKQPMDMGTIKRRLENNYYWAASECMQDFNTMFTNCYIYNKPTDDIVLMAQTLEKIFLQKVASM
Chain of BRD-2 (Domain 2) (P25440 344-453): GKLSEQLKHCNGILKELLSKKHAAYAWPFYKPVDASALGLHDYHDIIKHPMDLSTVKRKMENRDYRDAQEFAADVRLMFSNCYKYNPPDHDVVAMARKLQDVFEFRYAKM

| SMILES | IC50 (BRD-3 (Domain 1)) [nM] | IC50 (BRD-4 (Domain 1)) [nM] | IC50 (BRD-4 (Domain 2)) [nM] | IC50 (HL-60) [nM] | IC50 (BRD-2 (Domain 1)) [nM] | IC50 (BRD-2 (Domain 2)) [nM] | IC50 (MV4; 11) [nM] |
| --- | --- | --- | --- | --- | --- | --- | --- |
| Cc1nnn2c1-c1ccc(C(=O)NC(C)c3ccc(F)cc3)cc1N(c1ccc(Cl)cc1)CC2 (stereo in doubt) [Example 33, 7-(4-chlorophenyl)-N—((R)-1-(4-fluorophenyl)ethyl)-1-methyl-6,7-dihydro-5H-benzo[f][1,2,3]triazolo[1,5-d][1,4]diazepine-9-carboxamide] | < 100 |  |  |  |  |  |  |
| Cc1nnn2c1-c1ccccc1N(c1ccccc1)CC2 [Example 5, 1-methyl-7-phenyl-6,7-dihydro-5H-benzo[f][1,2,3]triazolo[1,5-d][1,4]diazepine] |  | < 100 | < 100 |  |  |  |  |
| Cc1nnn2c1-c1ccccc1N(c1ccc(Cl)cc1)CC2 [Example 11, 7-(4-chlorophenyl)-1-methyl-6,7-dihydro-5H-benzo[f][1,2,3]triazolo[1,5-d][1,4]diazepine] |  |  |  | 1000 to 5000 |  |  |  |
| Cc1nnn2c1-c1ccc(-c3cnc(N)nc3)cc1N(c1ccc(Cl)cc1)CC2 [Example 12, 5-(7-(4-chlorophenyl)-1-methyl-6,7-dihydro-5H-benzo[f][1,2,3]triazolo[1,5-d][1,4]diazepin-9-yl)pyrimidin-2-amine] |  |  |  | < 1000 |  |  |  |
| Cc1nnn2c1-c1ccccc1N(c1ccc(Cl)cc1)C[C@@H]2C [Example 13, 7-(4-chlorophenyl)-1,5-dimethyl-6,7-dihydro-5H-benzo[f][1,2,3]triazolo[1,5-d][1,4]diazepine] |  |  |  | < 1000 | < 100 | < 100 |  |
| Cc1nnn2c1-c1ccc(Br)cc1N(c1ccc(Cl)cc1)CC2C (stereo not drawn) [Example 14, 9-Bromo-7-(4-chlorophenyl)-1,5-dimethyl-6,7-dihydro-5H-benzo[f][1,2,3]triazolo[1,5-d][1,4]diazepine] |  |  |  | < 1000 |  |  |  |
| Cc1nnn2c1-c1ccccc1N(c1ccc(Cl)cc1)C[C@H]2C [Example 16, (5R)-7-(4-chlorophenyl)-1,5-dimethyl-6,7-dihydro-5H-benzo[f][1,2,3]triazolo[1,5-d][1,4]diazepine] |  |  |  | < 1000 | < 100 | < 100 |  |
| Cc1nnn2c1-c1ccc(Cn3cccn3)cc1N(c1ccc(Cl)cc1)CC2 [Example 20, 9-((1H-pyrazol-1-yl)methyl)-7-(4-chlorophenyl)-1-methyl-6,7-dihydro-5H-benzo[f][1,2,3]triazolo[1,5-d][1,4]diazepine] | < 100 | < 100 | < 100 |  |  |  |  |
| Cc1nnn2c1-c1ccccc1N(c1ccc(Cl)cc1)CC2CCO (stereo not drawn) [Example 21, 2-(7-(4-chlorophenyl)-1-methyl-6,7-dihydro-5H-benzo[f][1,2,3]triazolo[1,5-d][1,4]diazepin-5-yl)ethanol] | < 100 | < 100 | < 100 | 1000 to 5000 | 100 to 1000 | < 100 |  |
| Cc1nnn2c1-c1ccccc1N(c1cccc(Br)c1)CC2 [Example 22, 7-(3-Bromophenyl)-1-methyl-6,7-dihydro-5H-benzo[f][1,2,3]triazolo[1,5-d][1,4]diazepine] | < 100 | < 100 | < 100 | 1000 to 5000 | 100 to 1000 | < 100 |  |
| C=Cc1cccc(N2CCn3nnc(C)c3-c3ccccc32)c1 [Example 23, 1-Methyl-7-(3-vinylphenyl)-6,7-dihydro-5H-benzo[f][1,2,3]triazolo[1,5-d][1,4]diazepine] | < 100 | < 100 | < 100 | 1000 to 5000 | 100 to 1000 | < 100 |  |
| Cc1nnn2c1-c1ccccc1N(c1cccc(C(O)CO)c1)CC2 (stereo not drawn) [Example 24, 1-(3-(1-methyl-5H-benzo[f][1,2,3]triazolo[1,5-d][1,4]diazepin-7(6H)-yl)phenyl)ethane-1,2-diol] | < 100 | < 100 | < 100 | 1000 to 5000 | < 100 | < 100 |  |
| FC(F)c1nnn2c1-c1ccccc1N(c1ccc(Cl)cc1)CC2 [Example 29, 7-(4-chlorophenyl)-1-(difluoromethyl)-6,7-dihydro-5H-benzo[f][1,2,3]triazolo[1,5-d][1,4]diazepine] |  | 100 to 1000 | 100 to 1000 |  | > 1000 | 100 to 1000 |  |
| Cc1nnn2c1-c1ccc(CCN3CCOCC3)cc1N(c1ccc(Cl)cc1)CC2 [Example 30, 4-(2-(7-(4-chlorophenyl)-1-methyl-6,7-dihydro-5H-benzo[f][1,2,3]triazolo[1,5-d][1,4]diazepin-9-yl)ethyl)morpholine] | 100 to 1000 | 100 to 1000 | 100 to 1000 | 1000 to 5000 | 100 to 1000 | 100 to 1000 |  |
| COC(=O)c1ccc2c(c1)N(c1ccc(Cl)cc1)CCn1nnc(C)c1-2 [Example 31, methyl 7-(4-chlorophenyl)-1-methyl-5,6-dihydrotriazolo[1,5-d][1,4]benzodiazepine-9-carboxylate] |  |  |  | < 1000 |  |  | < 1000 |
| Cc1nnn2c1-c1ccc(C(=O)NCc3ccccc3)cc1N(c1ccc(Cl)cc1)CC2 [Example 37, N-benzyl-7-(4-chlorophenyl)-1-methyl-6,7-dihydro-5H-benzo[f][1,2,3]triazolo[1,5-d][1,4]diazepine-9-carboxamide] |  | < 100 | < 100 |  |  |  |  |
| Cc1nnn2c1-c1ccc(C(=O)NC(c3ccccc3)c3ccccc3)cc1N(c1ccc(Cl)cc1)CC2 [Example 38, N-benzhydryl-7-(4-chlorophenyl)-1-methyl-6,7-dihydro-5H-benzo[f][1,2,3]triazolo[1,5-d][1,4]diazepine-9-carboxamide] | < 100 |  |  |  | 100 to 1000 | < 100 |  |
| Cc1nnn2c1-c1ccc(C(=O)NS(C)(=O)=O)cc1N(c1ccc(Cl)cc1)CC2 [Example 41, 7-(4-chlorophenyl)-1-methyl-N-(methylsulfonyl)-6,7-dihydro-5H-benzo[f][1,2,3]triazolo[1,5-d][1,4]diazepine-9-carboxamide] |  | < 100 | < 100 | 1000 to 5000 |  |  | < 1000 |
| Cc1nnn2c1-c1ccc(C(N)=O)cc1N(c1ccc(Cl)cc1)CC2 [Example 42, 7-(4-chlorophenyl)-1-methyl-6,7-dihydro-5H-benzo[f][1,2,3]triazolo[1,5-d][1,4]diazepine-9-carboxamide] |  | < 100 | < 100 |  |  |  |  |
| Cc1nnn2c1-c1ccc(C(=O)NO)cc1N(c1ccc(Cl)cc1)CC2 [Example 44, 7-(4-Chlorophenyl)-N-hydroxy-1-methyl-6,7-dihydro-5H-benzo[f][1,2,3]triazolo[1,5-d][1,4]diazepine-9-carboxamide] |  | < 100 | < 100 |  | < 100 | < 100 |  |
| Cc1nnn2c1-c1ccc(C#N)cc1N(c1ccc(Cl)cc1)CC2 [Example 47, 7-(4-chlorophenyl)-1-methyl-6,7-dihydro-5H-benzo[f][1,2,3]triazolo[1,5-d][1,4]diazepine-9-carbonitrile] |  | < 100 | < 100 |  |  |  |  |
| CON(C)C(=O)c1ccc2c(c1)N(c1ccc(Cl)cc1)CCn1nnc(C)c1-2 [Example 48, 7-(4-Chlorophenyl)-N-methoxy-N, 1-dimethyl-6,7-dihydro-5H-benzo[f][1,2,3]triazolo[1,5-d][1,4]diazepine-9-carboxamide] |  | < 100 | < 100 |  | < 100 | < 100 |  |
| Cc1nnn2c1-c1ccc(C(O)C(F)(F)F)cc1N(c1ccc(Cl)cc1)CC2 (stereo not drawn) [Example 50, 1-(7-(4-Chlorophenyl)-1-methyl-6,7-dihydro-5H-benzo[f][1,2,3]triazolo[1,5-d][1,4]diazepin-9-yl)-2,2,2-trifluoroethanol] |  | < 100 | < 100 |  |  |  |  |
| Cc1nnn2c1-c1ccc(-c3nn[nH]n3)cc1N(c1ccc(Cl)cc1)CC2 [Example 51, 7-(4-chlorophenyl)-1-methyl-9-(2H-tetrazol-5-yl)-6,7-dihydro-5H-benzo[f][1,2,3]triazolo[1,5-d][1,4]diazepine] |  | < 100 | < 100 | > 5000 |  |  | < 1000 |
